Measurements: article PMC5931107, “Clinical pharmacodynamic/exposure characterisation of the multikinase inhibitor ilorasertib (ABT-348) in a phase 1 dose-escalation trial” (British Journal of Cancer, 2018)
Read-outs that look alike come from different tables or passages of the source.

Assay: Plasma pharmacokinetics, Arm II (oral BID), phase 1 trial
Type: in vivo, human
Details: for half-life: read-out: t1/2 (harmonic mean) (converted); for Cmax: read-out: Cmax
Description: Pharmacokinetics of ilorasertib were evaluated in the dose-escalation cohort on blood samples that were collected on cycle 1 days 1 and 15. Parameters determined: Cmax, time to Cmax (Tmax), terminal phase elimination half-life (t1/2), clearance, apparent oral clearance (CL/F), and area under the plasma concentration-time curve from time 0 to time of last measurable concentration (AUCt) and from time 0 to infinity (AUC∞). For Arm I, blood samples were collected prior to dosing and at 0.5, 1, 2, 3, 4, 6, 8, 10 or 12, and 24 h after dosing on cycle 1 days 1 and 15; of note, for institutions not able to collect the 10- or 12-h post-dose sample, the 24-h sample was replaced with 22-h and 28-h post-dose samples. In Arm II, for the first dose, blood samples were collected pre-dose and at 1, 2, 3, and 4 h post-dose on cycle 1 days 1 and 15; for the second dose, samples were collected pre-dose and at 1, 2, 3, 4, 18, and 24 h after second dose on cycle 1 days 1 and 15. In Arm III, blood samples were collected prior to infusion, at 1 h 55 min (just before end of infusion), and at 0.5, 1, 2, 4, 6, 8, 10, and 24 h after end of infusion on cycle 1 days 1 and 15; here also, for institutions not able to collect the 8-h or 10-h after-end-of-infusion samples, the 24-h sample was replaced with 22-h and 28-h post-dose samples. The liquid chromatography (LC)-mass spectrometry (MS)/MS method was developed and validated in the Bioanalysis Department of AbbVie. Fifty microliter of human plasma (K2EDTA as anticoagulant) was fortified with 300 μL of deuterium-stable labelled internal standard and mixed well. A HybridSPE precipitation plate (50 mg/96 wells, Supelco Analytical, Munich, Germany) was used to directly load and elute (under slight vacuum) the fortified samples into a clean collection plate. Samples were dried before reconstitution with 100 μL of 20/80 (v/v) acetonitrile/water, and injected for LC-MS/MS analysis. A Halo C8 (Wilmington, DE, USA; 2.7 μm, 2.1 × 30 mm) was used on an Agilent 1290 Infinity UPLC pump (Agilent Technologies, Santa Clara, CA) to carry out the separation. An isocratic condition with 25/75/0.1 (v/v/v) acetonitrile/water/98% formic acid was used as the mobile phase. The flow rate was set to be 0.6 mL/min. An MPS 3 C ([…] Ruhr, Germany) autosampler was used to introduce samples onto the UPLC system. An API 4000 mass spectrometer (Applied Biosystems, Foster City, CA) was used in the multiple reactions monitoring mode for the detection and quantitation of analyte. Descriptive statistics were used for demographic variables. The numbers and percentages of patients with treatment-emergent AEs (TEAEs) were tabulated using the Medical Dictionary for Regulatory Activities version 16.0 system organ class and preferred term, and further classified according to CTCAE version 4.0 criteria. The safety data set included all patients who received one or more doses of ilorasertib. The pharmacokinetic data set included all patients who received one or more doses of ilorasertib and had one or more pharmacokinetic samples. Values for pharmacokinetic parameters were determined using non-compartmental methods, with data analysed separately for each arm. A repeated measures analysis was performed for Tmax and dose-normalised Cmax, AUCt, and AUC∞. The model included random effects for patient and fixed effects for dose level, day, and the interaction of dose level and day. To assess effects of exposure on pharmacodynamic biomarkers, Cmax was employed as the directly measured marker of exposure for the rapid changes in DBP and PlGF pre-steady-state, while AUC∞ reflected exposure variability at the time of post-multiple-dose skin biopsy. Descriptive statistics were used to summarise ECOG performance status. The efficacy data set included all patients who received one or more doses of ilorasertib.

[1] = human, plasma, po, 40 mg, Arm II PO BID 40 mg, day 1, N=2, mean (individual)
[2] = human, plasma, po, 40 mg, Arm II PO BID 40 mg, day 1, N=3
[3] = human, plasma, po, 40 mg, Arm II PO BID 40 mg, day 15, N=3
[4] = human, plasma, po, 60 mg, Arm II PO BID 60 mg, day 1, N=3
[5] = human, plasma, po, 60 mg, Arm II PO BID 60 mg, day 15, N=1
[6] = human, plasma, po, 60 mg, Arm II PO BID 60 mg, day 15, N=3
[7] = human, plasma, po, 90 mg, Arm II PO BID 90 mg, day 1, N=2, mean (individual)
[8] = human, plasma, po, 90 mg, Arm II PO BID 90 mg, day 15, N=3
[9] = human, plasma, po, 130 mg, Arm II PO BID 130 mg, day 1, N=3
[10] = human, plasma, po, 130 mg, Arm II PO BID 130 mg, day 1, N=4
[11] = human, plasma, po, 130 mg, Arm II PO BID 130 mg, day 15, N=1
[12] = human, plasma, po, 130 mg, Arm II PO BID 130 mg, day 15, N=3
[13] = human, plasma, po, 190 mg, Arm II PO BID 190 mg, day 15, N=2, mean (individual)
[14] = human, plasma, po, 190 mg, Arm II PO BID 190 mg, day 15, N=5
[15] = human, plasma, po, 230 mg, Arm II PO BID 230 mg, day 1, N=2, mean (individual)
[16] = human, plasma, po, 230 mg, Arm II PO BID 230 mg, day 1, N=3
[17] = human, plasma, po, 230 mg, Arm II PO BID 230 mg, day 15, N=1
[18] = human, plasma, po, 230 mg, Arm II PO BID 230 mg, day 15, N=4
[19] = human, plasma, po, 340 mg, Arm II PO BID 340 mg, day 1, N=1
[20] = human, plasma, po, 340 mg, Arm II PO BID 340 mg, day 1, N=3
[21] = human, plasma, po, 340 mg, Arm II PO BID 340 mg, day 15, N=1

Nc1ncc(-c2cnn(CCO)c2)c2scc(-c3ccc(NC(=O)Nc4cccc(F)c4)cc3)c12 [ilorasertib, Ilorasertib]
Tmax (Arm II, oral administration in two divided doses, versus Arm I): delayed by several hours
AUC(0-inf) [1]: 3990 ng·h/mL
half-life [1]: 11 h
AUC(0-t) [2]: 3720 ± 1640 ng·h/mL
Cmax [2]: 250 ± 120 ng/mL
Tmax (human, plasma, po, 40 mg, Arm II PO BID 40 mg, day 1, N=3, read-out: Tmax): 7.3 ± 3.8 h
AUC(0-t) [3]: 3750 ± 2050 ng·h/mL
Cmax [3]: 190 ± 110 ng/mL
Tmax (human, plasma, po, 40 mg, Arm II PO BID 40 mg, day 15, N=3, read-out: Tmax): 10 h
AUC(0-t) [4]: 5450 ± 1460 ng·h/mL
Cmax [4]: 380 ± 140 ng/mL
Tmax (human, plasma, po, 60 mg, Arm II PO BID 60 mg, day 1, N=3, read-out: Tmax): 5.7 ± 3.8 h
AUC(0-inf) [5]: 5430 ng·h/mL
half-life [5]: 11.8 h
AUC(0-t) [6]: 2920 ± 710 ng·h/mL
Cmax [6]: 230 ± 60 ng/mL
Tmax (human, plasma, po, 60 mg, Arm II PO BID 60 mg, day 15, N=3, read-out: Tmax): 4.8 ± 2.8 h
AUC(0-inf) [7]: 4030 ng·h/mL
half-life [7]: 10.1 h
AUC(0-t) (human, plasma, po, 90 mg, Arm II PO BID 90 mg, day 1, N=3): 3920 ± 1530 ng·h/mL
Tmax (human, plasma, po, 90 mg, Arm II PO BID 90 mg, day 1, N=3, read-out: Tmax): 9 ± 1 h
AUC(0-inf) (human, plasma, po, 90 mg, Arm II PO BID 90 mg, day 15, N=2, mean (individual)): 5330 ng·h/mL
AUC(0-t) [8]: 4060 ± 1510 ng·h/mL
Cmax [8]: 320 ± 100 ng/mL
Tmax (human, plasma, po, 90 mg, Arm II PO BID 90 mg, day 15, N=3, read-out: Tmax): 7.6 ± 5.4 h
AUC(0-inf) [9]: 6530 ± 4460 ng·h/mL
half-life [9]: 18.6 ± 17.6 h
AUC(0-t) [10]: 5070 ± 3180 ng·h/mL
Cmax [10]: 600 ± 390 ng/mL
Tmax (human, plasma, po, 130 mg, Arm II PO BID 130 mg, day 1, N=4, read-out: Tmax): 7.5 ± 1.7 h
AUC(0-inf) [11]: 3960 ng·h/mL
half-life [11]: 7.5 h
AUC(0-t) [12]: 2400 ± 1290 ng·h/mL
Cmax [12]: 260 ± 280 ng/mL
Tmax (human, plasma, po, 130 mg, Arm II PO BID 130 mg, day 15, N=3, read-out: Tmax): 11 ± 11.5 h
AUC(0-inf) (human, plasma, po, 190 mg, Arm II PO BID 190 mg, day 1, N=4): 17800 ± 11300 ng·h/mL
Cmax (human, plasma, po, 190 mg, Arm II PO BID 190 mg, day 1, N=7): 540 ± 280 ng/mL
Tmax (human, plasma, po, 190 mg, Arm II PO BID 190 mg, day 1, N=7, read-out: Tmax): 10.2 ± 6.7 h
AUC(0-inf) [13]: 10700 ng·h/mL
half-life [13]: 8.4 h
AUC(0-t) [14]: 6690 ± 5220 ng·h/mL
Cmax [14]: 630 ± 380 ng/mL
Tmax (human, plasma, po, 190 mg, Arm II PO BID 190 mg, day 15, N=5, read-out: Tmax): 13.2 ± 10.2 h
AUC(0-inf) [15]: 9140 ng·h/mL
half-life [15]: 9 h
AUC(0-t) [16]: 10100 ± 3620 ng·h/mL
Cmax [16]: 700 ± 230 ng/mL
Tmax (human, plasma, po, 230 mg, Arm II PO BID 230 mg, day 1, N=3, read-out: Tmax): 8.7 ± 1.2 h
AUC(0-inf) [17]: 13000 ng·h/mL
half-life [17]: 8 h
AUC(0-t) [18]: 11200 ± 4340 ng·h/mL
Cmax [18]: 790 ± 460 ng/mL
Tmax (human, plasma, po, 230 mg, Arm II PO BID 230 mg, day 15, N=4, read-out: Tmax): 9.5 ± 0.6 h
AUC(0-inf) [19]: 98800 ng·h/mL
half-life [19]: 39.6 h
AUC(0-t) [20]: 39300 ± 14800 ng·h/mL
Cmax [20]: 2040 ± 870 ng/mL
Tmax (human, plasma, po, 340 mg, Arm II PO BID 340 mg, day 1, N=3, read-out: Tmax): 15 ± 8 h
AUC(0-t) [21]: 15700 ng·h/mL
Cmax [21]: 770 ng/mL
Tmax (human, plasma, po, 340 mg, Arm II PO BID 340 mg, day 15, N=1, read-out: Tmax): 10 h
Tmax (human, plasma, po, Arm II PO BID all doses, day 1, N=26, read-out: Tmax): 9.2 ± 5 h
Tmax (human, plasma, po, Arm II PO BID all doses, day 15, N=22, read-out: Tmax): 9.7 ± 6.6 h
